According to patent EP2769738B1, “Conjugated TLR7 and/or TLR8 and TLR2 polycationic agonists” (Invivogen, priority 2013, dated 2014):
Where “and” joins values, the source holds several entries; their conditions need not be identical. Equal entries are not always repeated.

Test: Determination of nanoparticle (lipoplex) size by dynamic light scattering
Format: physicochemical
Details: ratio 3:24 (w:w); for Conformity (C)/ Non-conformity (NC) / Mean Diameter (nm): complexes with pDNA; for Mean Diameter (nm): dynamic light scattering at 25°C; for Mean Diameter (nm) / PDI: triplicate measurements; for PDI: polydispersity index of complexes with pDNA, 25°C
Description: • 1. Preparative HPLC Method: Unless otherwise indicated, the compounds described herein were purified by RP-MPLC ARMEN® Spot Flash Liquid Chromatography (ARMEN Instrument, Saint Ave, France) on a preparative column (SVF D26) packed with 25-40 µm C18 resin (Merck chimie SAS), by applying a linear gradient of 0-10% MeCN in NH4OAc (10 mM) solution (pH = 9) over 60 min at a 15 mL/min flow rate. The purification was monitored at 254 nm. Suitable fractions were pooled and lyophilised. • 2. Proton NMR Spectra: Unless otherwise indicated, all ^1H NMR spectra were run on a Bruker series 300 MHz instrument. Where so characterized, all observed protons are reported as parts-per-million (ppm) downfield from tetramethylsilane (TMS) or other internal reference in the appropriate solvent indicated. NMR spectra were recorded on a Brucker 300 spectrometer. For ^1H (300 MHz) spectra δ values were referenced to CDCI3-d1 (7.26 ppm), DMSO- d6 (2.50 ppm), D2O-d2 (4.79 ppm) or MeOD-d4 (3.31 ppm). The peak patterns are indicated as follows: s: singlet, sl: large singlet, d: doublet, t: triplet, q: quartet, m: multiplet. • 3. Mass Spectra (MS): Analyses were run on an Agilent Model 6130 quadrupole MS. Unless otherwise indicated, all mass spectral data for starting materials, intermediates and/or exemplary compounds are reported as mass/charge (m/z), having an (M+H)^+ molecular ion. The molecular ion reported was obtained by electrospray detection method (commonly referred to as an ESI MS). Compounds having an isotopic atom, such as bromine and the like, are generally reported according to the detected isotopic pattern, as appreciated by those skilled in the art. • 4. Particle size: Particle size was determined using a Malvern Nanosizer (Malvern, Worcestershire, UK) and Malvern ZETASIZER.RTM. (Malvern, Worcestershire, UK). • 5. Naming Convention The compounds disclosed and described herein have been named using the naming convention provided with Chem-Draw Ultra 11.0 software, available in Chem. Office. In some instances, compounds were named with the term "spermine" inserted where appropriate. For example, where the spermine is substituted with Boc, "N1,N5,N10-TriBoc-spermine" is added to the Chem-Draw nomenclature in the appropriate place. Chem-Draw utilizes the ISIS Draw software compound naming convention, as appreciated by those skilled in the art.
For pDNA:TLR7-TLR2 polyamine molecules complexes, a ratio pDNA:TLR7-TLR2 polyamine molecules of 3:24 (w:w) was prepared in serum-free culture medium or in 5% glucose. The TLR7-TLR2 conjugated compound of interest was prediluted in serum-free culture medium or in 5% glucose and incubated for 5 minutes at room temperature, prior to the addition of an endotoxin-free, salt-free preparation of pDNA. In these experiments, the pBsr2pCpGLacZh plasmid was used in the pDNA:TLR7-TLR2 polyamine molecule complexes. The pDNA:TLR7-TLR2 polyamine molecule mixtures were incubated at room temperature for 30 minutes to allow the formation of the complex. The control used in these experiments was the cationic lipid transfection agent LyoVec™ (InvivoGen) prepared in a similar manner.
In order to confirm that TLR7-TLR2 polyamine molecules complex DNA, lipoplex size was determined. The physical characterization of complex was achieved by dynamic light scattering using the analytical equipment for laser diffraction Zetasizer Nano-ZS (Malvern). pDNA:TLR7-TLR2 polyamine molecule complexes were prepared as described above. Subsequently, 50µl of pDNA: TLR7-TLR2 polyamine molecule complexes were placed into a disposable sizing cuvette and measurements were made under conditions defined according to manufacturer's instructions. The measurements were made at 25°C in triplicate and a size distribution report was obtained. […]

SMILES	Conformity (C)/ Non-conformity (NC)	Mean Diameter (nm)	PDI
CCCCCCCCCCCCCCCC(=O)OCC(CSC[C@H](N)C(=O)N[C@@H](CO)C(=O)N[C@@H](CCCCN)C(=O)N[C@@H](CCCCN)C(=O)N[C@@H](CCCCNC(=O)c1ccc(Cn2c(O)nc3c(N)nc(NCCCC)nc32)cc1)C(=O)N[C@@H](CCCCN)C(=O)O)OC(=O)CCCCCCCCCCCCCCC (stereo partly drawn) [CL530, (2S,5S,8S,11S,14S,17R)-17-amino-5-(4-(4-((6-amino-2-(butylamino)-8-hydroxy-9H-purin-9-yl)methyl)benzamido)butyl)-2,8,11-tris(4-aminobutyl)-14-(hydroxymethyl) -4,7,10,13,16,24-hexaoxo-21-(palmitoyloxy)-23-oxa-19-thia-3,6,9,12,15-pentaaza nonatriacontan-1-oic acid]	NC (larger sizes were considered to show aggregates or non-conformity)	188,0 nm and 187,6 nm and 213,1 nm	0,332 and 0,351 and 0,315
CCCCCCCCCCCCCCCC(=O)OCC(CSC[C@H](N)C(=O)N[C@@H](CO)C(=O)N[C@@H](CCCCN)C(=O)N[C@@H](CCCCNC(=O)c1ccc(Cn2c(O)nc3c(N)nc(NCCCC)nc32)cc1)C(=O)N[C@@H](CCCCN)C(=O)N[C@@H](CCCCN)C(=O)O)OC(=O)CCCCCCCCCCCCCCC (stereo partly drawn) [CL531, (2S,5S,8S,11S,14S,17R)-17-amino-8-(4-(4-((6-amino-2-(butylamino)-8-hydroxy-9H-purin-9-yl)methyl)benzamido)butyl)-2,5,11-tris(4-aminobutyl)-14-(hydroxymethyl) -4,7,10,13,16,24-hexaoxo-21-(palmitoyloxy)-23-oxa-19-thia-3,6,9,12,15-pentaaza nonatriacontan-1-oic acid]	C (ranged between 140 and 200 nm in diameter were considered to show conformity)	145,0 nm and 143,8 nm and 140,1 nm	0,144 and 0,153 and 0,138
CCCCCCCCCCCCCCCC(=O)OCC(CSC[C@H](N)C(=O)N[C@@H](CO)C(=O)N[C@@H](CCCCNC(=O)c1ccc(Cn2c(O)nc3c(N)nc(NCCCC)nc32)cc1)C(=O)N[C@@H](CCCCN)C(=O)N[C@@H](CCCCN)C(=O)N[C@@H](CCCCN)C(=O)O)OC(=O)CCCCCCCCCCCCCCC (stereo partly drawn) [CL533, (2S,5S,8S,11S,14S,17R)-17-amino-11-(4-(4-((6-amino-2-(butylamino)-8-hydroxy-9H-purin-9-yl)methyl)benzamido)butyl)-2,5,8-tris(4-aminobutyl)-14-(hydroxylmethyl)-4,7,10,13,16,24-hexaoxo-21-(palmitoyloxy)-23-oxa-19-thia-3,6,9,12,15-pentaazanonatria contan-1-oic acid]	C (ranged between 140 and 200 nm in diameter were considered to show conformity)	140,4 nm and 149,8 nm and 141,5 nm	0,195 and 0,198 and 0,185
CCCCCCCCCCCCCCCC(=O)N[C@@H](CSCC(COC(=O)CCCCCCCCCCCCCCC)OC(=O)CCCCCCCCCCCCCCC)C(=O)N[C@@H](CO)C(=O)N[C@@H](CCCCN)C(=O)N[C@@H](CCCCN)C(=O)N[C@@H](CCCCNC(=O)c1ccc(Cn2c(O)nc3c(N)nc(NCCCC)nc32)cc1)C(=O)N[C@@H](CCCCN)C(=O)O (stereo partly drawn) [CL535, (2S,5S,8S,11S,14S,17R)-5-(4-(4-((6-amino-2-(butylamino)-8-hydroxy-9H-purin-9-yl)methyl)benzamido)butyl)-2,8,11-tris(4-aminobutyl)-14-(hydroxymethyl)-4,7,10, 13,16,24-hexaoxo-17-palmitamido-21-(palmitoyloxy)-23-oxa-19-thia-3,6,9,12,15-pentaazanonatriacontan-1-oic acid]	NC (larger sizes were considered to show aggregates or non-conformity)	229,5 nm and 232,3 nm and 226,8 nm	0,351 and 0,336 and 0,396
CCCCCCCCCCCCCCCC(=O)N[C@@H](CSCC(COC(=O)CCCCCCCCCCCCCCC)OC(=O)CCCCCCCCCCCCCCC)C(=O)N[C@@H](CO)C(=O)N[C@@H](CCCCN)C(=O)N[C@@H](CCCCNC(=O)c1ccc(Cn2c(O)nc3c(N)nc(NCCCC)nc32)cc1)C(=O)N[C@@H](CCCCN)C(=O)N[C@@H](CCCCN)C(=O)O (stereo partly drawn) [CL536, (2S,5S,8S,11S,14S,17R)-8-(4-(4-((6-amino-2-(butylamino)-8-hydroxy-9H-purin-9-yl)methyl)benzamido)butyl)-2,5,11-tris(4-aminobutyl)-14-(hydroxymethyl)-4,7,10, 13,16,24-hexaoxo-17-palmitamido-21-(palmitoyloxy)-23-oxa-19-thia-3,6,9,12,15-pentaazanonatriacontan-1-oic acid]	NC (larger sizes were considered to show aggregates or non-conformity)	231,9 nm and 236,1 nm and 225,8 nm	0,465 and 0,583 and 0,65
CCCCCCCCCCCCCCCC(=O)N[C@@H](CSCC(COC(=O)CCCCCCCCCCCCCCC)OC(=O)CCCCCCCCCCCCCCC)C(=O)N[C@@H](CO)C(=O)N[C@@H](CCCCNC(=O)c1ccc(Cn2c(O)nc3c(N)nc(NCCCC)nc32)cc1)C(=O)N[C@@H](CCCCN)C(=O)N[C@@H](CCCCN)C(=O)N[C@@H](CCCCN)C(=O)O (stereo partly drawn) [CL537, (2S,5S,8S,11S,14S,17R)-11-(4-(4-((6-amino-2-(butylamino)-8-hydroxy-9H-purin-9-yl)methyl)benzamido)butyl)-2,5,8-tris(4-aminobutyl)-14-(hydroxymethyl)-4,7,10, 13,16,24-hexaoxo-17-palmitamido-21-(palmitoyloxy)-23-oxa-19-thia-3,6,9,12,15-pentaazanonatria contan-1-oic acid]	NC (larger sizes were considered to show aggregates or non-conformity)	198,1 nm and 203,5 nm and 219,3 nm	0,704 and 0,618 and 0,626
